Values of other authors as cited in paper PMC9781794, “Polyphosphazene-Based Biomaterials for Biomedical Applications” (International Journal of Molecular Sciences, 2022).

Columns and labels:
[1] = tested on: bacterial species (Gram-positive, Gram-negative, and Mycobacteria); parameters: method as in PMID 36040292; settings: both Gram-positive and Gram-negative strains; ref [108]
[2] = buffer

Row | degradation half-life (T1/2) [2] | Substance | anti-bacterial activity [1] | anti-bacterial potency range [1]
1 |  | [N3P3(NHCy)6{Au(PPh3)}2{Ag(PPh3)}](NO3)3 [Sample 13] | excellent | nanomolar range
2 | ~ 1 year | valine |  | 
